Measured values from patent US10835493B2, “Platelet-like proteo-microparticles and method of using such in drug delivery” (Academia Sinica, priority 2015, dated 2020).

What was measured:
HO-1 expression in SVECs = assay: CoPP-induced HO-1 expression in SVECs (western blotting); format: cell-based, murine; settings: 4 hours exposure then overnight, compared to β-actin
Method: (§1) FIGS. 10A-10C show in vitro analysis of CoPP-induced expression of HO-1. FIG. 10A is a schematic diagram showing the relationship between CoPP, HO-1 and bilirubin. […] The cells were then placed back in a 37° C. incubator overnight before subjecting to western blotting (FIG. 10B). FIG. 10C presents the specific activity of the induced HO-1 in every treated sample, in catalyzing heme into bilirubin (n=6). NT; not treated, CoPP; free CoPP, Lipo+CoPP; liposome-encapsulated CoPP, PLP+CoPP; PLP-encapsulated CoPP. *, P<0.05, ***, P<0.001.
(§2) Samples were separated on 4-12% SDS-polyacrylamide gels (BioRad, US). After transfer to PVDF membrane, primary and secondary antibodies were applied, and the signals were detected with ECL-plus reagent. Primary antibodies against human GPIIb (GTX113758), human CD42c (GTX113355) and β-actin (GTX109639) were purchased from GeneTex (US). The anti-human CD62P (sc-19672) were from Santa Cruz (US). The rabbit polyclonal anti-HO-1 antibodies were made in-house according to Lin et al. ((2013), Arterioscler Thromb Vase Biol 33:785-794).
(§3) The capability of PLP−CoPP to induce HO-1 expression was first investigated in SVECs, RAW264.7 cells and MΦ (FIG. 10B). […] In addition, the enzyme activity of HO-1 in each corresponded to the expression level of enzyme in each of the CoPP-treated samples.

[1] = system: HO-1 expression in RAW264.7 cells; assay: CoPP-induced HO-1 expression in RAW264.7 cells (western blotting); format: cell-based, murine; settings: 4 hours exposure then overnight
Method: as §1, §2, §3

[2] = system: murine model of I/R injury; assay: Infarct area in murine model of myocardial I/R injury (histology); format: in vivo, mouse; settings: 5 mg/Kg i.v. at 72 hours of reperfusion then every 5 days; vs I/R+saline
Description: (§4) FIGS. 6A-6D show therapeutic analysis of PLP−CoPP in a murine model of myocardial I/R injury. […] Subsequent injections were made every 5 days until day 28, at which point the mice were sacrificed. Subsequently, the heart tissues of the mice were sectioned and stained with Masson's trichrome (FIG. 6B). NT; not treated, CoPP; free CoPP, Lipo+CoPP; liposome-encapsulated CoPP, PLP+CoPP; PLP-encapsulated CoPP. Scale bar; 1 mm for the whole section and 100 μm for the higher magnified images.
Surgery for myocardial ischemia-reperfusion (I/R) was performed according to the protocol published in Ojha et al. ((2008), Am J Physiol Heart Circ Physiol 294:H2435-H2443). Briefly, the mice were ventilated on room air-isoflurane at an appropriate rate and tidal volume. The heart was accessed via left thoracotomy, in which the left lung was retracted to allow entrance to the pericardium. Subsequently, the left atrium was elevated to expose the left anterior descending coronary artery (LAD), and was isolated using a 7-0 silk suture on a taper needle. The suture was tightened over a piece of polyethylene-10 tubing to provide for reversible ischemia via the occlusion of the coronary artery. Ischemia was allowed to continue for 45 minutes after occlusion. After 45 minutes, the suture was released to allow for reperfusion of the injured myocardium. […]

I/R injured hearts = assay: PCR of HO-1 and pro-inflammatory genes in I/R injured hearts; format: in vivo, mouse; settings: i.v. at 72 hours of reperfusion
Description: as §4
Total RNA was isolated from a whole heart using TRI Reagent (1 mL/whole heart). Subsequently, 1 μg of RNA was transcribed info cDNA using a random primer mixer (ProtoScript M-MuLV First Strand cDNA synthesis kit, New England BioLabs) and amplified during 35 cycles by PCR, utilizing specific primers (Table 1). The reactants were cycled at 95° C. for 1 min, 58° C. for 1 min, and 72° C. for 1.5 min to enable denaturation, annealing, and extension, respectively. PCR products were then separated on 1% (w/v) agarose gel at 60 V for 1 hour in TBE buffer (80 mM Tris base, 80 mM boric acid, and 2 mM EDTA, pH 8). The gels were stained with Health View Nucleic Acid Stain (Genomics, Taipei, Taiwan) for 30 minutes and then visualized under UV light.

[3] = system: murine model of non-reperfused MI; assay: Echocardiographic assessment of cardiac function in murine model of MI; format: in vivo, mouse; settings: 28 days post MI
Method: FIGS. 7A-7D show echocardiographic assessments of cardiac function and blood chemistry analysis of a murine model of MI injury after PLP−CoPP treatments. […] Treatments were then given every 5 days until day 28, at which point the cardiac function of the mice was assessed by echocardiography (n=8) (FIG. 7B); LVEF, left ventricular ejection fraction; FS, fraction shortening; LVEDV, left ventricular end-diastolic volume; LVESV, left ventricular end-systolic volume; IVSd, interventricular septal thickness at diastole; IVSs, interventricular septal thickness at systole. The blood of the mice was analyzed for biomarkers to assess liver function (FIG. 7C), renal function (FIG. 7D), and cardiac function (FIG. 7E); AST, aspartate aminotransferase; ALT, alanine aminotransferase; TBIL, total bilirubin; BUN, blood urea nitrogen; CRE, creatinine; CKMB, creatine kinase MB, *, P<0.05, ***, P<0.001. […]
The cardiac function in murine models of both I/R and MI was assessed by using a 30-MHz probe (Vevo770; Visual Sonics, Toronto, ON, Canada), following the methods published in Chen et al. ((2015), Stem Cells Trans Med 4:269-275). […] The left ventricular end-diastolic diameter (LVEDD) and end-systolic diameter (LVESD) were measured perpendicular to the long axis of the ventricle at the location of the papillary muscle insertion site. […]

murine model of MI = assay: Blood chemistry (serum) analysis in murine model of MI; format: in vivo, mouse; settings: end of 28-day treatment
Method: FIGS. 7A-7D show echocardiographic assessments of cardiac function and blood chemistry analysis of a murine model of MI injury after PLP−CoPP treatments. […] Treatments were then given every 5 days until day 28, at which point the cardiac function of the mice was assessed by echocardiography (n=8) (FIG. 7B); LVEF, left ventricular ejection fraction; FS, fraction shortening; LVEDV, left ventricular end-diastolic volume; LVESV, left ventricular end-systolic volume; IVSd, interventricular septal thickness at diastole; IVSs, interventricular septal thickness at systole. The blood of the mice was analyzed for biomarkers to assess liver function (FIG. 7C), renal function (FIG. 7D), and cardiac function (FIG. 7E); AST, aspartate aminotransferase; ALT, alanine aminotransferase; TBIL, total bilirubin; BUN, blood urea nitrogen; CRE, creatinine; CKMB, creatine kinase MB, *, P<0.05, ***, P<0.001.
All blood tests were performed by independent staff at the Taiwan Mouse Clinic, Academia Sinica, Taiwan. Male, BALB/c mice, approximately 56 weeks old, were used for all analyses (n=5 per group).
Levels of aspartate transaminase (AST), alanine transaminase (ALT), and total bilirubin in the serum were the biomarkers used to evaluate the hepatotoxicity of CoPP (FIG. 7C). […] Similar results were also seen in the measured serum level of blood urine nitrogen (BUN) and creatinine (CRE), which are biomarkers for renal toxicity (FIG. 7D).

C=CC1=C(C)c2cc3[n-]c(cc4nc(cc5[n-]c(cc1n2)c(C)c5CCC(=O)[O-])C(CCC(=O)[O-])=C4C)c(C)c3C=C.[Co+2].[H+].[H+] [CoPP, cobalt protoporphyrin]
HO-1 expression (HO-1 expression in SVECs): induction of some expression | HO-1 expression [1]: induced strong HO-1 expression | infarct area of the heart [2]: significant reduction | pro-inflammatory genes TNFα, MCP-1, IL6 and IL1β in the hearts (I/R injured hearts): downregulated | expression of the HO-1 gene (HMXO1) in the hearts (I/R injured hearts; vs saline and Lipo−CoPP): upregulated | left ventricular ejection fraction (LVEF, %) ([3]; 5 mg/Kg i.v. from 3 days post-infarction every 5 days): No significant difference | LVEDV and LVESV [3]: significantly better than the other treatment groups | serum ALT (murine model of MI): significantly higher level | serum BUN and CRE (murine model of MI): significantly higher than the other treatment groups | serum CKMB (murine model of MI): significantly lower CKMB levels
